According to ChEMBL document CHEMBL1275378, “Exploration of the active site of neuronal nitric oxide synthase by the design and synthesis of pyrrolidinomethyl 2-aminopyridine derivatives” (J Med Chem, 2010):

Legend:
[1] = Selectivity ratio of IC50 for rat recombinant nNOS to IC50 for mouse recombinant iNOS
[2] = target: T1, Nitric oxide synthase 3 (Bos taurus, UniProt P29473); assay: Inhibition of bovine recombinant eNOS
T1 sequence (P29473 whole entry): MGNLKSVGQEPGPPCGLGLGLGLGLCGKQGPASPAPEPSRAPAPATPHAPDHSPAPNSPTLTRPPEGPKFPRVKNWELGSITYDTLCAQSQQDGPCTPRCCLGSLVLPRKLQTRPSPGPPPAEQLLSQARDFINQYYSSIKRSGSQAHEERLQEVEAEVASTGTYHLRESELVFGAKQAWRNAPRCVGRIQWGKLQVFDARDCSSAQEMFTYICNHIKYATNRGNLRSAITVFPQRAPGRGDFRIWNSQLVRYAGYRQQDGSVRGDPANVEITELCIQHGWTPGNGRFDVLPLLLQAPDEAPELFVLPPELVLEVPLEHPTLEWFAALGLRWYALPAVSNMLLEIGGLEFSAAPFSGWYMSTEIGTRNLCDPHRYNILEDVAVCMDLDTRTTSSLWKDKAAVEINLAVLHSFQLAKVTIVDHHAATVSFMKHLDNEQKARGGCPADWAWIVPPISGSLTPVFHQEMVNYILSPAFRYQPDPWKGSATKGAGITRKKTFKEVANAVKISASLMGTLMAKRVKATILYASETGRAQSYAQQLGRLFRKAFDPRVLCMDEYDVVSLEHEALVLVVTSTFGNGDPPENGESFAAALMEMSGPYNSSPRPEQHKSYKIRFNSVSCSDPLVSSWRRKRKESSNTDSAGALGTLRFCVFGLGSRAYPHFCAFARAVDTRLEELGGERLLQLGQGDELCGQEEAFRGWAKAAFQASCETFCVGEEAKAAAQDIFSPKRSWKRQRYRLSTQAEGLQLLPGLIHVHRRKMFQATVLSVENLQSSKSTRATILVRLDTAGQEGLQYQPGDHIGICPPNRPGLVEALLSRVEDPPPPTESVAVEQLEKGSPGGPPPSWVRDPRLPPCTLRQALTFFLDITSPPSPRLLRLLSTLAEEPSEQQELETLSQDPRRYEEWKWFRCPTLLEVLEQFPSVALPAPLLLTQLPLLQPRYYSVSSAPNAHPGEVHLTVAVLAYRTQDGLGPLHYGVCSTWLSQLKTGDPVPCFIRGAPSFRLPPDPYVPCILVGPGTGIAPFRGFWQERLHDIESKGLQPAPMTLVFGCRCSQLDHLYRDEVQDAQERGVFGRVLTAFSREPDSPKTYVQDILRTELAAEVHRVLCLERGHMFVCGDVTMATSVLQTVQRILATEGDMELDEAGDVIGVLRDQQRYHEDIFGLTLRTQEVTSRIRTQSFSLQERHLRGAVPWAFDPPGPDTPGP

[3] = Selectivity ratio of IC50 for rat recombinant nNOS to IC50 for bovine recombinant eNOS

| Ratio [1] | Ki [2] [µM] | nNOS selectivity over eNOS (eNOS IC50 / nNOS IC50) [3] | Structure (SMILES) |
| --- | --- | --- | --- |
| 8 |  |  | Cc1cc(N)nc(C[C@H]2CNC[C@@H]2NCCCO)c1 (racemic) |
| 13 | 122 | 2.5 | NCCN1C[C@H](Cc2cccc(N)n2)[C@H](NCCCc2ccccc2)C1 (racemic) |
| 110 | 173 | 43 | NCCN1C[C@H](Cc2cccc(N)n2)[C@@H](NCCCc2ccccc2)C1 (racemic) |
|  | 849 |  | NCCN1C[C@H](Cc2cccc(N)n2)[C@H](NCCCO)C1 (racemic) |
|  | 1700 |  | NCCN1C[C@H](Cc2cccc(N)n2)[C@@H](NCCCO)C1 (racemic) |
| 20 | 242 | 15 | CN(C)CCN[C@H]1CNC[C@@H]1Cc1cccc(N)n1 (racemic) |
| 11.5 | 2910 | 201 | Nc1cccc(C[C@H]2CNC[C@@H]2NCCNCc2ccccc2)n1 (racemic) |
| 21.5 | 1450 | 105 | Nc1cccc(C[C@H]2CNC[C@@H]2NC[C@H](N)Cc2ccccc2)n1 (racemic) |
| 20 | 1450 | 71 | Nc1cccc(C[C@H]2CNC[C@@H]2NC[C@@H](N)Cc2ccccc2)n1 (racemic) |
| 18 | 625 | 49 | Nc1cccc(C[C@H]2CNC[C@@H]2N[C@H]2CCNC2)n1 (racemic) |
| 12 | 460 | 22 | Nc1cccc(C[C@H]2CNC[C@@H]2N[C@@H]2CCNC2)n1 (racemic) |
| 12 | 109 | 6 | Nc1cccc(C[C@H]2CNC[C@@H]2N[C@H]2CCN(Cc3ccccc3)C2)n1 (racemic) |
| 12 | 171 | 7 | Nc1cccc(C[C@H]2CNC[C@@H]2N[C@@H]2CCN(Cc3ccccc3)C2)n1 (racemic) |
|  | 61.2 |  | Cc1cc(N)nc(C[C@H]2CNC[C@@H]2NCCNCc2ccc(C(F)(F)F)cc2)c1 (racemic) |
| 31 | 78.8 | 90.5 | Cc1cc(N)nc(C[C@H]2CNC[C@@H]2NCCNCc2ccc(F)cc2)c1 (racemic) |
| 79 | 109 | 147 | Cc1cc(N)nc(C[C@H]2CNC[C@@H]2NCCNCc2cccc(C(F)(F)F)c2)c1 (racemic) |
| 127 | 202 | 306 | Cc1cccc(CNCCN[C@H]2CNC[C@@H]2Cc2cc(C)cc(N)n2)c1 (racemic) |
| 57 | 63.2 | 153 | Cc1cc(N)nc(C[C@H]2CNC[C@@H]2NCCNCc2ccc(Cl)c(Cl)c2)c1 (racemic) |
| 92 | 76.1 | 158 | Cc1cc(N)nc(C[C@H]2CNC[C@@H]2NCCNCc2ccc(Cl)cc2Cl)c1 (racemic) |
| 35 | 16.5 | 28 | Cc1cc(N)nc(C[C@H]2CNC[C@@H]2NC[C@H](C)NCc2ccc(Cl)cc2)c1 (racemic) |
|  | 58.1 |  | Cc1cc(N)nc(C[C@H]2CNC[C@H]2N(C)CCNCc2ccc(Cl)cc2)c1 (racemic) |
| 190 | 44.1 | 370 | Cc1cc(N)nc(C[C@H]2CNC[C@@H]2NCCNCCc2ccc(F)cc2)c1 (racemic) |
| 11 | 85.2 | 6 | Cc1cc(N)nc(C[C@H]2CNC[C@@H]2NCCCc2ccccc2)c1 (racemic) |
| 4 | 341 | 49 | Nc1cccc(C[C@H]2CNC[C@@H]2O)n1 (racemic) |
|  | 866 |  | Cc1cc(N)nc(C[C@H]2CNC[C@@H]2NCCN)c1 (racemic; form 1) [listing 1 of 2 here] |
| 9 |  |  | Cc1cc(N)nc(C[C@H]2CNC[C@@H]2NCCN)c1 (racemic; form 1) [listing 2 of 2 here] |
|  | 263 |  | Cc1cc(N)nc(C[C@H]2CNC[C@@H]2NCCN)c1 (racemic; form 2) [listing 1 of 2 here] |
| 52.5 |  |  | Cc1cc(N)nc(C[C@H]2CNC[C@@H]2NCCN)c1 (racemic; form 2) [listing 2 of 2 here] |
